Laboratory results published in article doi:10.1101/2024.08.25.609621 (bioRxiv, 2024).
“And” between values parts separate entries of the source, which are not always exact repeats. Identical values can stand only once. Like-named read-outs stand apart in the source and are kept apart here.

Columns and labels:
[1] = target: SARS-CoV-2 NSP3 macrodomain (Mac1) (Severe acute respiratory syndrome coronavirus 2, UniProt P0DTD1); experiment: biochemical; assay type: binding; conditions: for SARS CoV-2 macrodomain HTRF assay: Hillslope: dose-response fit
[2] = target: SARS-CoV-2 NSP3 macrodomain (Mac1), P43 crystal form (Severe acute respiratory syndrome coronavirus 2, UniProt P0DTD1); assay type: binding; conditions: for 1-BDC: PanDDA background density correction; for Total number of conformations: ligand conformations modeled in Mac1 crystal structure; for X-ray crystallography: Binding site: site where the ligand is bound in the X-ray crystal structure
[3] = preliminary screen, compound at 200 μM, mean of 3-4 technical replicates, read-out: % competition in HTRF assay
[4] = TRUE = crystal structure with ligand determined
[5] = crystal soak concentration 20 mM, DMSO background map
[6] = crystal soak concentration 20 mM, DMSO background map, event 1
[7] = crystal soak concentration 20 mM, P43 crystals
[8] = occupancy estimate from PanDDA BDC
[9] = site of Mac1 where ligand bound in crystal structure
[10] = SARS CoV-2 macrodomain HTRF assay, dose-response
[11] = Single dose, concentration 200 μM, read-out: Average % competition
[12] = X-ray crystal structure determined (TRUE)
[13] = crystal soak 10 mM, P43 crystals
[14] = crystal soak 10 mM, DMSO background map
[15] = occupancy estimate from PanDDA 1-BDC
[16] = site of ligand in X-ray crystal structure
[17] = Single dose, 200 μM, mean of three technical replicates
[18] = crystal soak concentration 3 mM, P43 crystals
[19] = crystal soak concentration 3 mM, DMSO background map
[20] = crystal soak 10 mM, DMSO background map, event 1
[21] = crystal soak concentration 10 mM, DMSO background map, event 1
[22] = crystal soak concentration 10 mM, P43 crystals
[23] = crystal soak concentration 10 mM, DMSO background map

SMILES | inhibition at 200 µM [1, 3] [%] | Occupancy difference (refined_occupancy - 2*(1-BDC)) [2] | Refined ligand occupancy (%) [2] [%] | 1-BDC [2] | Total number of conformations [2] | 2*(1-BDC) (%) [2, 8] [%] | Hill slope ([1]; HTRF dose-response fit, Mac1) | X-ray crystal structure [2, 12] | Pandda run, overall: Hit [2, 13] | Pandda run, overall: Modeled [2, 13] | PanDDA run, DMSO background map: 1-BDC [2, 14] | PanDDA run, DMSO background map: Hit [2, 14] | 2*(1-BDC) (%) [2, 15] [%] | Binding site [2, 16] | PanDDA run, DMSO background map: 1-BDC ([2]; DMSO background map, event 1) | SARS CoV-2 macrodomain HTRF assay: Hillslope [1] | X-ray crystallography: Binding site [2] | also measured
CC(C)n1nnnc1SCc1c(C(=O)O)sc2cccc(F)c12 [AVI-291] | 41 | 0 | 68 | 0.34 | 1 | 68 |  |  |  |  |  |  |  |  |  |  |  | IC50 ([1]; Dose-response, SARS CoV-2 macrodomain HTRF assay, read-out: IC50): > 1000 µM; inhibition at 200 µM ([1]; Single dose, 200 μM, mean of three technical replicates, read-out: Average % competition): 41%; X-ray crystal structure [2, 4]: TRUE; Comment ([2]; comment on ligand modeling / Phe132 loop density): Second ligand conformation, not modeled, DMSO x2; PanDDA run, DMSO background map: Hit [2, 5]: TRUE; PanDDA run, DMSO background map: Modeled [2, 5]: TRUE; PanDDA run, DMSO background map: 1-BDC [2, 6]: 0.34; Pandda run, overall: Hit [2, 7]: TRUE; Pandda run, overall: Modeled [2, 7]: TRUE; Pandda run, overall: Modeling comment [2, 7]: Second ligand conformation, not modeled, DMSO x2; Pandda run, overall: Modeling comment ([2]; crystal soak, soak concentration 10 mM): Duplicate, not modeled; Pandda run, overall: Hit ([2]; crystal soak, soak concentration 10 mM, P43 crystals, TRUE = ligand-binding event identified): TRUE; PanDDA run, DMSO background map: Hit ([2]; crystal soak, soak concentration 10 mM, DMSO background map): TRUE; PanDDA run, DMSO background map: 1-BDC ([2]; crystal soak, soak concentration 10 mM, DMSO background map, event 1): 0.25; Binding site [2, 9]: Adenosine
CCC(CC)(CO)Nc1ncnc2[nH]ccc12 [AVI-3695] | 89 |  |  | 0.12 | 2 |  | 1.3 | TRUE | TRUE | TRUE | 0.12 | TRUE | 24 | Adenosine |  |  |  | Hill slope [1, 10]: 1.3; inhibition at 200 µM [1, 11]: 89%
Cc1ccc2c(c1)CC[C@@H](C(=O)Nc1nnc3n1CCCC3)O2 [AVI-329] |  |  |  | 0.07 | 1 |  |  |  |  |  |  |  | 14 |  | 0.17 |  |  | Average % competition [1, 17]: 9%; X-ray crystal structure [2, 4]: TRUE; Pandda run, overall: Hit [2, 18]: TRUE; Pandda run, overall: Modeled [2, 18]: TRUE; Pandda run, overall: Modeling comment [2, 18]: Duplicate, not modeled; PanDDA run, DMSO background map: Hit [2, 19]: TRUE; PanDDA run, DMSO background map: Modeled [2, 19]: TRUE; PanDDA run, DMSO background map: 1-BDC ([2]; crystal soak concentration 3 mM, DMSO background map, event 1): 0.08 and 0.07; Binding site [2, 9]: Distal
CCC(O)[C@H]1CCCN1c1ncnc2[nH]ccc12 (some centres unmarked) [AVI-3666] | 87 |  |  | 0.3 | 1 |  | 1.3 |  | TRUE | TRUE | 0.3 | TRUE | 60 |  |  | 1.3 | Adenosine | inhibition at 200 µM ([1]; Single dose, concentration 200 μM, read-out: SARS CoV-2 macrodomain HTRF assay: Average % competition): 87%; IC50 ([1]; confirmatory dose-response, best fit value of 3-4 technical replicates, Fig. S3 prints the 95% confidence interval in brackets, read-out: HTRF IC50): 46 µM; Ki ([1]; dose-response, read-out: SARS CoV-2 macrodomain HTRF assay: Ki): 43 µM
CN(C)CC(CO)Nc1ncnc2[nH]ccc12 (centres unmarked) [AVI-3671] |  |  |  | 0.17 | 1 |  |  | TRUE | TRUE | TRUE | 0.17 | TRUE | 34 | Adenosine |  |  |  | % competition in HTRF assay ([1]; preliminary screen, compound at 200 μM, mean of 3-4 technical replicates): neither had detectable binding
OC1(CNc2ncnc3[nH]ccc23)CCCC(C(F)(F)F)C1 (centres unmarked) [AVI-4309] |  | 0 | 40 | 0.2 | 1 | 40 | 1.4 |  |  |  |  |  |  |  | 0.2 | 1.4 | Adenosine | Hit (PanDDA run, overall) [2, 13]: TRUE; Hit (PanDDA run, DMSO background map) [2, 14]: TRUE; 1-BDC (PanDDA run, DMSO background map) [2, 20]: 0.21
CC(C)(C)C1CCCN1c1ncnc2[nH]ccc12 (centres unmarked) [AVI-6000] |  | 0 | 14 | 0.07 | 1 | 14 |  |  |  |  |  |  |  |  | 0.07 |  | Adenosine | IC50 ([1]; dose-response, read-out: SARS CoV-2 macrodomain HTRF assay: IC50): > 1000 µM
Cc1c[nH]c2ncnc(NCC3(O)CCC(C)CC3)c12 (centres unmarked) [AVI-4331] |  | 0 | 54 | 0.27 | 1 | 54 | 1.2 |  |  |  |  | TRUE |  |  |  | 1.2 | Adenosine | Pandda run, overall: Hit ([2]; crystal soak 10 mM, P43 crystals, TRUE = ligand identified by PanDDA): TRUE; PanDDA run, DMSO background map: 1-BDC [2, 20]: 0.27; PanDDA run, DMSO background map: 1-BDC [2, 21]: 0.23; Pandda run, overall: Hit [2, 22]: TRUE; Pandda run, overall: Modeling comment [2, 22]: Duplicate, not modeled; PanDDA run, DMSO background map: Hit [2, 23]: TRUE
COc1ccc(NC(=O)NC2CCCC2)cc1-n1nnnc1C [AVI-311] |  |  |  |  |  |  |  |  |  |  |  |  |  |  |  |  |  | Average % competition [1, 17]: 0%; PanDDA run, DMSO background map: 1-BDC [2, 21]: 0.09; Pandda run, overall: Hit [2, 22]: TRUE; Pandda run, overall: Modeling comment [2, 22]: Weak density, not modeled; PanDDA run, DMSO background map: Hit [2, 23]: TRUE; PanDDA run, DMSO background map: Hit [2, 5]: TRUE; PanDDA run, DMSO background map: 1-BDC [2, 6]: 0.12; Pandda run, overall: Hit [2, 7]: TRUE; Pandda run, overall: Modeling comment [2, 7]: Weak density, not modeled
CCC(C)(CO)Nc1ncnc2[nH]ccc12 (centres unmarked) [AVI-3697] | 91 |  |  | 0.16 | 1 |  | 1.2 | TRUE | TRUE | TRUE | 0.16 | TRUE | 32 | Adenosine |  |  |  | Hill slope [1, 10]: 1.2; inhibition at 200 µM [1, 11]: 91%
